Key:
MDA-MB-231 = test: Growth inhibition of human MDA-MB-231 cells after 72 hrs by CellTiter-Glo assay; assay type: functional; conditions: MDA-MB-231, 72 h
[1] = biological target: T1, MDR1 (ABCB1, P-glycoprotein) (Homo sapiens, UniProt P08183); test: Activity at human MDR1 expressed in pig LLC-PK1 cells assessed as apparent permeability at 10 umol/L after 2 hrs by LC-MS/MS analysis; assay type: ADME, cell-based
[2] = biological target: T1, MDR1 (ABCB1, P-glycoprotein); test: Activity at human MDR1 expressed in pig LLC-PK1 cells assessed as efflux ratio of permeability from basolateral to apical side over apical to basolateral side at 10 umol/L after 2 hrs by LC-MS/MS analysis; assay type: ADME, cell-based

T1 sequence (P08183 whole entry): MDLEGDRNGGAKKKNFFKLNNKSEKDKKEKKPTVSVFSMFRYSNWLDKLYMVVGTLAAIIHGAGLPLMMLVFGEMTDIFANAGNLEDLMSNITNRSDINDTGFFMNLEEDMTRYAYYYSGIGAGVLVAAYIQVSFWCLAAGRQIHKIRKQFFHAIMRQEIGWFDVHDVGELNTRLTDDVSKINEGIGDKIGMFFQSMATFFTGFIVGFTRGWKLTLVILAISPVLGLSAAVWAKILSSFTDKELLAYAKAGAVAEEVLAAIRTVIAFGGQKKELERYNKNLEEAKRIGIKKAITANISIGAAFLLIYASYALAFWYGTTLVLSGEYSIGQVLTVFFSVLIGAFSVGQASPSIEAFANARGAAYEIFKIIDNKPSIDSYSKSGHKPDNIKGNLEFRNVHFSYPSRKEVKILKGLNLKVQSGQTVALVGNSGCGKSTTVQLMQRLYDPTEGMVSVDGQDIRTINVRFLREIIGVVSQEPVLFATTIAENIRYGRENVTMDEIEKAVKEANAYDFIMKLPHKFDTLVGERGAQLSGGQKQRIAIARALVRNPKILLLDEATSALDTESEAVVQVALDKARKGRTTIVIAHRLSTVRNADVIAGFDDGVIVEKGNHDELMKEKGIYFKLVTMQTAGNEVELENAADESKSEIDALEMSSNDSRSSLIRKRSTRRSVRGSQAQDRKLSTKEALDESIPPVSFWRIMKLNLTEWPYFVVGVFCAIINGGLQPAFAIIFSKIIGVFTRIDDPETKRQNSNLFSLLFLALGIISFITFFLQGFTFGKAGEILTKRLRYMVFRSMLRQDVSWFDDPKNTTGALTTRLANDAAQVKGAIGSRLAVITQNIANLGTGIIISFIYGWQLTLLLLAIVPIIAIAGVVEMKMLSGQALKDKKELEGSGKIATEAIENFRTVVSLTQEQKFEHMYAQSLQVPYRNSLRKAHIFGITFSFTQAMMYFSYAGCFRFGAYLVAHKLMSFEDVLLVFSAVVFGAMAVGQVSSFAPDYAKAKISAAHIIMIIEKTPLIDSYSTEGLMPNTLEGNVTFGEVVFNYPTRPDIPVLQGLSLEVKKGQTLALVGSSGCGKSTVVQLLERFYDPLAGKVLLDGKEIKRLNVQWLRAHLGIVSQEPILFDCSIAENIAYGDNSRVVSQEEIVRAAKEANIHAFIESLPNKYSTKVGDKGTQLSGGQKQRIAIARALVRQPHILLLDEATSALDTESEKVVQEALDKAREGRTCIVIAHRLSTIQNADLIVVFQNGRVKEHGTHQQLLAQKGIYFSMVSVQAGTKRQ

| Compound | GI50 (MDA-MB-231) [nM] | Papp at 2 h, 10 µM [1] [×10⁻⁶ cm/s] | efflux ratio at 2 h, 10 µM [2] |
| --- | --- | --- | --- |
| CN[C@@H](C)C(=O)N[C@H](C(=O)N1C[C@@H]2CCCN2C[C@H]1C(=O)N[C@@H]1CCOc2ccccc21)C1CCCCC1 | 13 | 0.3 |  |
| CC[C@H](NC)C(=O)N[C@H](C(=O)N1C[C@@H]2Cc3ccccc3N2C[C@H]1C(=O)N[C@@H]1CCOc2ccccc21)C1CCCCC1 | 1.8 | 2.5 |  |
| CC[C@H](NC)C(=O)N[C@H](C(=O)N1C[C@@H]2Cc3cc(Cl)cc(Cl)c3N2C[C@H]1C(=O)N[C@@H]1CCOc2ccccc21)C1CCCCC1 | 5.9 | 7.5 |  |
| CC[C@H](NC)C(=O)N[C@H](C(=O)N1C[C@@H]2Cc3cc(C#N)ccc3N2C[C@H]1C(=O)N[C@@H]1CCOc2ccccc21)C1CCCCC1 | 1.9 | 1.4 |  |
| CC[C@H](NC)C(=O)N[C@H](C(=O)N1C[C@@H]2Cc3cc(Cl)ccc3N2C[C@H]1C(=O)N[C@@H]1CCOc2ccccc21)C1CCCCC1 |  | 6.4 |  |
| CN[C@@H](C)C(=O)N[C@H](C(=O)N1C[C@H]2Cc3ccccc3N2C[C@H]1C(=O)N[C@@H]1CCOc2ccccc21)C1CCCCC1 | 15 | 4.1 |  |
| CCO[C@@H]1C[C@@H]2CN(C(=O)[C@@H](NC(=O)[C@H](C)NC)C3CCC(F)(F)CC3)[C@H](C(=O)N[C@@H]3CCOc4ccccc43)CN2C1 |  | 0.1 | 24 |
| CN[C@@H](C)C(=O)N[C@H](C(=O)N1C[C@H]2CCCN2C[C@H]1C(=O)N[C@@H]1CCOc2ccccc21)C1CCCCC1 | 5.7 | 0.5 |  |
| CC[C@H](NC)C(=O)N[C@H](C(=O)N1C[C@H]2Cc3ccccc3N2C[C@H]1C(=O)N[C@@H]1CCOc2ccccc21)C1CCCCC1 | 4.4 | 8.6 |  |
| CC[C@H](NC)C(=O)N[C@H](C(=O)N1C[C@H]2CCCN2C[C@H]1C(=O)N[C@@H]1CCOc2ccccc21)C1CCCCC1 | 4.6 |  |  |
